One block for each compound: values may come before it.
How the values were obtained:
MCF-7 cells = assay: MTT cytotoxicity assay, MCF-7; type: cell-based; details: Homo sapiens, MCF7, 72 h
Experimental: (§1) The results expressed as IC50 values were summarized in Table 1, and the values were the average of at least two independent experiments.
(§2) The cancer cell lines were cultured in minimum essential medium (MEM) supplement with 10% fetal bovine serum (FBS). […] The test compounds at indicated final concentrations were added to the culture medium and the cell cultures were continued for 72 h. […] All of the compounds were tested two times in each of the cell lines. The results expressed as inhibition rates or IC50 (half-maximal inhibitory concentration) were the averages of two determinations and calculated by using the Bacus Laboratories Incorporated Slide Scanner (Bliss) software (the Bacus Laboratories Inc. Slide Scanner (BLISS) system, Lombard, IL, USA)..

c-Met kinase = c-Met kinase (Homo sapiens, UniProt P08581); assay: c-Met kinase inhibition assay (HTRF; mobility shift)
Chain of c-Met kinase (P08581 25-1390): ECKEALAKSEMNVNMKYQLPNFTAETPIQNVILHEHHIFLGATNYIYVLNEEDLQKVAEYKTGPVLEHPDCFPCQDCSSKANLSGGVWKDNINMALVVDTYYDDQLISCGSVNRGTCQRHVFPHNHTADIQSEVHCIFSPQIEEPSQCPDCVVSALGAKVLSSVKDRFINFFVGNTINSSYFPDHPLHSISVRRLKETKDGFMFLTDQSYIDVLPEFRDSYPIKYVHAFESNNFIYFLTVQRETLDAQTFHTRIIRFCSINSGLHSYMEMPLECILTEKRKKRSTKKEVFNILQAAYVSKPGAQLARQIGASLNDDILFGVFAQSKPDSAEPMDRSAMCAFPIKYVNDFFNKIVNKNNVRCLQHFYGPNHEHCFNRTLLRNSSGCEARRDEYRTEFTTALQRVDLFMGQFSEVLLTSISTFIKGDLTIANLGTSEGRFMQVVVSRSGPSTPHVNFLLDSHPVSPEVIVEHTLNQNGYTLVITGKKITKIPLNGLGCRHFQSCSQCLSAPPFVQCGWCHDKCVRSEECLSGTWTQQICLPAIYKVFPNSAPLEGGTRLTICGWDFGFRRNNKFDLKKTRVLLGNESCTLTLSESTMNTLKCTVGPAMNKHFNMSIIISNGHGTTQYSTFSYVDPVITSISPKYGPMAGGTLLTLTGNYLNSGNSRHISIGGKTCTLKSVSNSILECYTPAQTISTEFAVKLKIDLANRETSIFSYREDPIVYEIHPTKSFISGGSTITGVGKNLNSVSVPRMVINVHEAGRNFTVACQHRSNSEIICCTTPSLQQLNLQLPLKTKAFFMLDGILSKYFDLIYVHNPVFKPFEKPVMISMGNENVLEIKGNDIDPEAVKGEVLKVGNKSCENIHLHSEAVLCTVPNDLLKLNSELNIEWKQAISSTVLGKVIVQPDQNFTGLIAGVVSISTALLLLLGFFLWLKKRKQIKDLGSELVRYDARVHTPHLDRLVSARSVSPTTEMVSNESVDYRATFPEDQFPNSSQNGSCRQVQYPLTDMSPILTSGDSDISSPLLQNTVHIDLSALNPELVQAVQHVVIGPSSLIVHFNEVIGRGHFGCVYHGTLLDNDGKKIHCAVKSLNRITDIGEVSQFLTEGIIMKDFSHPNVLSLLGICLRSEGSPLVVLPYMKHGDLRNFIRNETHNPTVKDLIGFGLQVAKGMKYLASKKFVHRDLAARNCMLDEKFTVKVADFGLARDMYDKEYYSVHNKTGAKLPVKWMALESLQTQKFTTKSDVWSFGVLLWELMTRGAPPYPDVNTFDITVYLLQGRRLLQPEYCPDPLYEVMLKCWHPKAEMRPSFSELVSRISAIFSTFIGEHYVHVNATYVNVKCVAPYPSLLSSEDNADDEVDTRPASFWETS
Experimental: All kinase assays were performed in 96-well plates in a 50 µL reaction volume. The kinase buffer contains 50 mM HEPES, pH 7.5, 10 mM MgCl2, 0.0015% Brij-35 and 2 mM DTT. The stop buffer contains 100 mM HEPES, pH 7.5, 0.015% Brij-35, 0.2% Coating Reagent 3 and 50 mM EDTA. Dilute the compounds to 500 µM by 100% DMSO, then transfer 10 µL of compound to a new 96-well plate as the intermediate plate, add 90 µL kinase buffer to each well. Transfer 5 µL of each well of the intermediate plate to 384-well plates. The following amounts of enzyme and substrate were used per well: kinase base buffer, FAM-labeled peptide, ATP and enzyme solution. Wells containing the substrate, enzyme, DMSO without compound were used as DMSO control. Wells containing just the substrate without enzyme were used as low control. Incubate at room temperature for 10 min. Add 10 µL peptide solution to each well. […] At last collect data on Caliper program and convert conversion values to inhibition values. Percent inhibition = (max − conversion)/(max − min) × 100. ‘max’ stands for DMSO control; ‘min’ stands for low control [20].

A549 cells = assay: MTT cytotoxicity assay, A549; type: cell-based; details: Homo sapiens, 72 h
Experimental: as §1, §2

HepG2 cells = assay: MTT cytotoxicity assay, HepG2; type: cell-based; details: Homo sapiens, 72 h
Experimental: as §1
The cancer cell lines were cultured in minimum essential medium (MEM) supplement with 10% fetal bovine serum (FBS). Approximately 4 × 10^3 cells, suspended in MEM medium, were plated onto each well of a 96-well plate and incubated in 5% CO2 at 37 °C for 24 h. The test compounds at indicated final concentrations were added to the culture medium and the cell cultures were continued for 72 h. Fresh MTT was added to each well at a terminal concentration of 5 μg/mL and incubated with cells at 37 °C for 4 h. The formazan crystals were dissolved in 100 μL DMSO each well, and the absorbency at 492 nm (for absorbance of MTT formazan) and 630 nm (for the reference wavelength) was measured with the ELISA reader. All of the compounds were tested two times in each of the cell lines. The results expressed as inhibition rates or IC50 (half-maximal inhibitory concentration) were the averages of two determinations and calculated by using the Bacus Laboratories Incorporated Slide Scanner (Bliss) software (the Bacus Laboratories Inc. Slide Scanner (BLISS) system, Lombard, IL, USA)..

SMILES: COc1cc2c(Oc3ccc(NC(=O)c4nn(-c5ccc(F)cc5)ccc4=O)cc3F)ccnc2cc1OCCCN1CCOCC1 [Compound 22]
IC50 (MCF-7 cells): 210 ± 20 nM
IC50 (c-Met kinase): 47 nM
IC50 (A549 cells): 250 ± 10 nM
IC50 (HepG2 cells): 2230 ± 350 nM
melting point: 152.3 to 153.5 °C

SMILES: COc1cc2c(Oc3ccc(NC(=O)c4nn(-c5ccc(F)c(Cl)c5)ccc4=O)cc3F)ccnc2cc1OCCCN1CCOCC1 [Compound 26, 1-(3-Chloro-4-fluorophenyl)-N-(3-fluoro-4-((6-methoxy-7-(3-morpholinopropoxy)quinolin-4-yl)oxy)phenyl)-4-oxo-1,4-dihydropyridazine-3-carboxamide]
IC50 (MCF-7 cells): 5960 ± 770 nM
IC50 (c-Met kinase): 352 nM
IC50 (A549 cells): 3700 ± 570 nM
IC50 (HepG2 cells): > 50000 nM
melting point: 138.1 to 140.6 °C

SMILES: COc1cc2c(Oc3ccc(NC(=O)c4nn(-c5ccc(Br)cc5F)ccc4=O)cc3F)ccnc2cc1OCCCN1CCN(C)CC1 [Compound 51, 1-(4-Bromo-2-fluorophenyl)-N-(3-fluoro-4-((6-methoxy-7-(3-(4-methylpiperazin-1-yl)propoxy)quinolin-4-yl)oxy)phenyl)-4-oxo-1,4-dihydropyridazine-3-carboxamide]
IC50 (MCF-7 cells): 5430 ± 740 nM
IC50 (c-Met kinase): 123 nM
IC50 (A549 cells): 5630 ± 750 nM
IC50 (HepG2 cells): 6390 ± 810 nM

SMILES: COc1cc2c(Oc3ccc(NC(=O)C4(C(=O)Nc5ccc(F)cc5)CC4)cc3F)ccnc2cc1OCCCN1CCOCC1 [Foretinib, reference compound]
IC50 (HepG2 cells): 840 ± 70 nM

Further lines, with some results ahead:

IC50 (c-Met kinase): > 500 nM
melting point: 138.2 to 139.1 °C
SMILES: COc1cc2c(Oc3ccc(NC(=O)c4nn(-c5ccc(Cl)cc5)ccc4=O)cc3F)ccnc2cc1OCCCN1CCOCC1 [Compound 23, 1-(4-Chlorophenyl)-N-(3-fluoro-4-((6-methoxy-7-(3-morpholinopropoxy)quinolin-4-yl)oxy)phenyl)-4-oxo-1,4-dihydropyridazine-3-carboxamide]
IC50 (MCF-7 cells): > 50000 nM
IC50 (A549 cells): > 50000 nM
IC50 (HepG2 cells): > 50000 nM

IC50 (c-Met kinase): > 500 nM
melting point: 125.7 to 127.1 °C
SMILES: COc1cc2c(Oc3ccc(NC(=O)c4nn(-c5ccc(Br)cc5)ccc4=O)cc3F)ccnc2cc1OCCCN1CCOCC1 [Compound 24, 1-(4-Bromophenyl)-N-(3-fluoro-4-((6-methoxy-7-(3-morpholinopropoxy)quinolin-4-yl)oxy)phenyl)-4-oxo-1,4-dihydropyridazine-3-carboxamide]
IC50 (MCF-7 cells): > 50000 nM
IC50 (A549 cells): > 50000 nM
IC50 (HepG2 cells): > 50000 nM

IC50 (c-Met kinase): 233 nM
melting point: 153.8 to 155.2 °C
SMILES: COc1ccc(-n2ccc(=O)c(C(=O)Nc3ccc(Oc4ccnc5cc(OCCCN6CCOCC6)c(OC)cc45)c(F)c3)n2)cc1 [Compound 25, N-(3-Fluoro-4-((6-methoxy-7-(3-morpholinopropoxy)quinolin-4-yl)oxy)phenyl)-1-(4-methoxyphenyl)-4-oxo-1,4-dihydropyridazine-3-carboxamide]
IC50 (MCF-7 cells): 27200 ± 1440 nM
IC50 (A549 cells): 4240 ± 620 nM
IC50 (HepG2 cells): 6750 ± 820 nM

IC50 (c-Met kinase): 39 nM
SMILES: COc1cc2c(Oc3ccc(NC(=O)c4nn(-c5ccc(F)cc5)ccc4=O)cc3F)ccnc2cc1OCCCN1CCN(C)CC1 [Compound 46, N-(3-Fluoro-4-((6-methoxy-7-(3-(4-methylpiperazin-1-yl)propoxy)quinolin-4-yl)oxy)phenyl)-1-(4-fluorophenyl)-4-oxo-1,4-dihydropyridazine-3-carboxamide]
IC50 (MCF-7 cells): 1660 ± 220 nM
IC50 (A549 cells): 1640 ± 220 nM
IC50 (HepG2 cells): 7510 ± 870 nM

IC50 (c-Met kinase): 2 nM
SMILES: COc1cc2c(Oc3ccc(NC(=O)c4nn(-c5ccc(F)c(Cl)c5)ccc4=O)cc3F)ccnc2cc1OCCCN1CCN(C)CC1 [Compound 50, 1-(3-Chloro-4-fluorophenyl)-N-(3-fluoro-4-((6-methoxy-7-(3-(4-methylpiperazin-1-yl)propoxy)quinolin-4-yl)oxy)phenyl)-4-oxo-1,4-dihydropyridazine-3-carboxamide]
IC50 (MCF-7 cells): 20 ± 10 nM
IC50 (A549 cells): 20 ± 10 nM
IC50 (HepG2 cells): 2460 ± 390 nM

Source: publication PMC6099740, “Design, Synthesis and Biological Evaluation of 6,7-Disubstituted-4-phenoxyquinoline Derivatives Bearing Pyridazinone Moiety as c-Met Inhibitors” (Molecules : A Journal of Synthetic Chemistry and Natural …, 2018)
